Data as given in patent US7799810B2, “Organic compounds” (Novartis AG, priority 2006, dated 2010).

How the values were obtained:
PI3K α, β or γ isoform = experiment: Selectivity for the δ isoform by corresponding assay using the corresponding PI3K isoform; assay type: biochemical; settings: δ versus α
Experimental: PI3K delta enzyme assay based on Scintillation Proximity Assay (SPA) technology. Human PI3K delta is expressed as a recombinant protein in insect cells. PI3K delta activity is assayed by measuring the phosphorylation of phosphatidylinositol (PI) using a scintillation proximity assay. Briefly, the kinase reaction is performed in a final volume of 50 μl/well. The final concentrations of ATP and PI in the assay are 5 μM and 6 μg/ml, respectively. The reaction is started by the addition of PI3K delta and terminated by the addition of 50 μl Wheatgerm agglutinin SPA beads after 90 minutes of incubation at room temperature.

Human PI3K delta = biological target: T1, Human PI3K delta (Homo sapiens, UniProt O00329); experiment: Cellular PI3K delta assay (Akt phosphorylation in transfected Rat-1 cells); assay type: cell-based; settings: Rat-1 cells transfected with human PI3K delta CaaX construct, phospho Akt ELISA; read-out: IC50 PI3K delta-dependent Akt phosphorylation
T1 construct: fused on or other part: CaaX box (isoprenylation / membrane-targeting signal) added at the C-terminal end
T1 sequence (O00329 1-1044): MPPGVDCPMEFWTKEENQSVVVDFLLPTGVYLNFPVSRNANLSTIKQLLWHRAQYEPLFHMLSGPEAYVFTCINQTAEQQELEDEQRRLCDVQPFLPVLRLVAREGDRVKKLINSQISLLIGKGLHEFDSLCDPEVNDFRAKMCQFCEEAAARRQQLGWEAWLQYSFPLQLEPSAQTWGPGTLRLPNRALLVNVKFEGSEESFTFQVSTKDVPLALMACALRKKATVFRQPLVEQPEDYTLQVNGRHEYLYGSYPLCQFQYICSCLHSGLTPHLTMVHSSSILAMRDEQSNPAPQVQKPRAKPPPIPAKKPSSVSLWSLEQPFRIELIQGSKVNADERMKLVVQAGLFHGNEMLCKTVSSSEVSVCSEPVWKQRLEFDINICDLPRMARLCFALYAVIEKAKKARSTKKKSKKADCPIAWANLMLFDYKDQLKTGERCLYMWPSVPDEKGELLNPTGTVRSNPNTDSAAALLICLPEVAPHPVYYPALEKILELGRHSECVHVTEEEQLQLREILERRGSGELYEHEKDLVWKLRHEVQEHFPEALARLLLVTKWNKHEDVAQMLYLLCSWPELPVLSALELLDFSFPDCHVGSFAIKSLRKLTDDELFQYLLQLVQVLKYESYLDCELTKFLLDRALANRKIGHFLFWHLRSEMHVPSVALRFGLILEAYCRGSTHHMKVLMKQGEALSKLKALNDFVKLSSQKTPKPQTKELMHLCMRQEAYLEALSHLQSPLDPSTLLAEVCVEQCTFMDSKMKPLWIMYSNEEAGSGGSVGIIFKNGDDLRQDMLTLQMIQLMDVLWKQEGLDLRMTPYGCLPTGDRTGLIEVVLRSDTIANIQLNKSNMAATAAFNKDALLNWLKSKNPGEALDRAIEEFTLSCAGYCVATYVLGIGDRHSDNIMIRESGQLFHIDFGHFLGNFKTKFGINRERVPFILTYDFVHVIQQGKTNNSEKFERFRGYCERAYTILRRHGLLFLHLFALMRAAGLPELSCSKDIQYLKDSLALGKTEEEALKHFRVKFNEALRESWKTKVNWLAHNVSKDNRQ
Text: Cellular PI3K delta assay. Rat-1 cells are transiently transfected with a human PI3K delta construct (pcDNA3 PIK3 delta containing a CaaX box at the C-terminal end) using the FUGENE transfection kit. The CaaX box signals for the attachment of an isoprenoid moiety which activates PI3K delta by targeting it to intracellular membranes/the plasma membrane. Subsequent, PI3K delta-dependent Akt phosphorylation is quantified in presence and absence of compounds to be tested using the phospho Akt ELISA kit from R&D Systems.

[1] = tested on: spleen cells from CBA and BALB/c mice; experiment: Mixed lymphocyte reaction (two-way MLR); assay type: cell-based; settings: Mus musculus, four days of incubation, 3H-thymidine incorporation
Experimental: Mixed lymphocyte reaction (MLR). A two-way MLR is performed according to standard procedures. Briefly, spleen cells from CBA and BALB/c mice (1.6×10^5 cells from each strain per well in flat bottom tissue culture microtiter plates, 3.2×10^5 in total) are incubated in RPMI medium containing 10% fetal calf serum, 100 U/ml penicillin, 100 μg/ml streptomycin, 50 μM 2-mercaptoethanol and serially diluted compounds to be tested. After four days of incubation 1 μCi [^3H] thymidine is added to the cultures. Cells are harvested after an additional five-hour incubation period, and incorporated ^3H-thymidine is determined according to standard procedures. […] In this assay, the compounds of formula I have ICsovalues ranging from 20 nM to 200 nM.

[2] = tested on: spleen cells of nu/nu Balb/c mice; experiment: B cell proliferation assay (anti-IgM stimulated spleen cells); assay type: cell-based; settings: anti-mouse IgM 5 μg/ml, 3 days, [3H] thymidine incorporation
Experimental: B cell proliferation assay. A spleen cell suspension of nu/nu Balb/c mice is prepared and adjusted to 2×10^6 cells/ml in complete Iscoves Medium followed by the addition of 10 μg/ml monoclonal anti-mouse IgM antibody (clone b-7-6). Compounds to be rested are dissolved in DMSO at 10 mM and diluted in complete Iscoves Medium. […] Plates are incubated for 3 days at 37° C. and 5% CO2. Cell proliferation is measured by incorporation of [^3H] thymidine following a 16 hours pulse.

- selectivity for the δ isoform over the α, β or γ isoform (ratio of IC50 values) (PI3K α, β or γ isoform): at least 10 fold
- IC50 (Human PI3K delta): 0.022 µM
- IC50 [1]: 0.026 µM
Structure (SMILES): Cc1cc(NC(=O)CCNC(=O)Nc2nc(C)c(-c3ccc(-n4cccn4)cc3)s2)no1 [Example 2, N-(5-Methyl-isoxazol-3-yl)-3-{3-[4-methyl-5-(4-pyrazol-1-yl-phenyl)-thiazol-2-yl]-ureido}-propionamide]
- IC50 [2]: 0.015 µM
